{"source": "patent US20120114714A1", "about": "“METHOD FOR THE TREATMENT AND PREVENTION OF ERECTILE DYSFUNCTION” (priority 2006, published 2012)", "key": {"[1]": {"system": "penile corpus cavernosum smooth muscles", "assay": "Relaxation of phenylephrine-contracted penile corpus cavernosum smooth muscle sections in organ bath", "parameters": "species or system New Zealand white rabbit", "conditions": "for Relaxation (%): conc. 10^−4 M, section contracted with 10^−4 M phenylephrine", "description": "A New Zealand white rabbit (2.5 to 3.0 kg) was anesthetized and the overall penis was then dissected from the rabbit. The penile corpus cavernosum smooth muscles were separated from the tunica albuginea in a low-temperature Tyrode's solution aerated with a 95% O2-5% CO2 gas mixture, while observing with a dissection microscope, to prepare a penis section. The penis section was fixed in an organ bath (10 cc) containing a Tyrode's solution. At this time, the one end of the penis section was fixed on the bottom of the organ bath, and a variation in isometric tension of the penile corpus cavernosum smooth muscles was then measured with a force displacement transducer at the other end thereof. After reaching an equilibrium state, the penile section was contracted by treatment of 10^−4 M phenylephrine.\nAccording to the drug used to treat the penile section, the experimental groups used herein were divided into six groups, i.e., i) a group with administration of SNP as a NO donor, ii) a group with administration of Zaprinast as an inhibitor against PDE-5, an enzyme that mediates hydrolysis of c-GMP, a group with administration of acetylcholine that acts on the nervous system, iv) a group with administration of metformin, one of conventional AMPK activators, v) a group with administration of AICAR (5-aminoimidazole-4-carboxamide-1-beta-D-ribofuranoside), and vi) a group with administration of the compound 1 according to the present invention. These groups were compared with one another, in view of relaxation (%) of the penile corpus cavernosum."}, "[2]": {"system": "diabetes-induced rats", "assay": "Internal pressure of penile corpus cavernosum after electrostimulation in STZ diabetes-induced rats", "assay_type": "in vivo, Sprague-Dawley white rats", "conditions": "oral for 5 weeks, AICAR 500 mg/kg, compound 1 250 mg/kg, FIG. 7", "description": "In order to confirm in vivo whether penile erection of a diabetes-induced rat has an influence on the internal pressure of the penile corpus cavernosum, 23 Sprague-Dawley white rats (about 300 g) are divided into a normal control group (Group I, n=6), a diabetes-induced control group (Group II, n=4), a group with administration of AICAR following the diabetes-induction (Group III, n=6), and a group with administration of the compound 1 (Group IV, n=7).\nSTZ (streptozotocin) was used to induce diabetes, and the AICAR and the compound 1 were orally administered in dosages of 500 mg/kg and 250 mg/kg, respectively, for 5 weeks. Each of the experimental groups was systemically anesthetized, intubated into one-side of the carotid in order to measure blood pressure, a electrostimulation-purpose catheter was set in the penile corpus cavernosum nerves in the cavum pelvis, and the internal pressure of the penile corpus cavernosum was measured. Electrostimulation was applied to the group for one minute (frequency: 10 Hz, delay: 4 ms, duration: 5 ms, volt: 3V). An increase in internal pressure of the groups was measured, and the groups were compared with one another in view of the increase in internal pressure."}, "[3]": {"system": "endothelial nitric oxide synthase (eNOS)", "assay": "Phosphorylation of eNOS in HUVEC cells (anti-pS1177 eNOS)", "assay_type": "cell-based", "conditions": "compound 1 10 uM, FIG. 3", "experimental": "In order to ascertain whether the compound 1 acting as an AMPK activator is implicated in the production of NO, phosphorylation to promote the activity of endothelial nitric oxide synthase (eNOS) was measured. So as to confirm the phosphorylation of eNOS through the compound 1, HUVEC cells were seeded on a 60 mm plate at 1×10^5 in an EBM2/5% FBS medium and cultured for 24 hours. The medium was replaced by a serum-free EBM2 medium and the treatment with the compound 1 (10 uM) was performed for a predetermined period. An anti-pS1177 eNOS was used to measure the phosphorylated eNOS."}, "[4]": {"system": "penile corpus cavernosum smooth muscles", "assay": "Compound 1-induced relaxation upon blocking of the NO pathway (L-NAME, methylene blue)", "parameters": "species or system New Zealand white rabbit", "conditions": "FIG. 4", "description": "To confirm the effects of the compound 1 on relaxation of the penile corpus cavernosum smooth muscles upon blocking of a NO pathway, the penile corpus cavernosum smooth muscle sections were contracted by the treatment of phenylephrine, relaxed by the treatment of the compound 1, and then sequentially treated with methylene blue as an inhibitor against guanylate cyclase that helps production of c-GMP and with L-NAME (L-nitroarginine methyl ester) that inhibits production of NO via inhibitory activity against eNOS."}, "[5]": {"system": "penile corpus cavernosum smooth muscles", "assay": "Compound 1-induced relaxation after endothelium removal (CHAPS) and HO-2 inactivation (ZnPP)", "parameters": "species or system New Zealand white rabbits", "description": "To ascertain the pharmacological mechanism the compound 1 acts on the relaxation of the penile corpus cavernosum smooth muscles in the New Zealand white rabbits, the smooth muscle sections were relaxed by the treatment of the compound 1 and endothelial cells were then removed from the smooth muscle sections using 10^−4 M of CHAPS (3-[(3-cholamidopropyl) dimethylammonio]-1-propanesulfonate, 0.3% in buffer solution; Sigma) as a lysis buffer. Subsequently, as another neurotransmitter, zinc-protoporphyrin-IX (ZnPP) was administrated thereto, which inactivates heme oxygenase-2 (HO-2) that produces carbon monoxide (CO) that is in vivo produced by blood and acts as a vasodilator."}, "[6]": {"biological_target": "Phosphodiesterase type 5 (PDE 5) (Homo sapiens, UniProt O76074)", "conditions": "cited from earlier work"}}, "data": [{"compound": "NC(=O)c1ncn([C@@H]2O[C@H](CO)[C@@H](O)[C@H]2O)c1N", "note": "[AICAR, 5-aminoimidazole-4-carboxamide-1-beta-D-ribofuranoside, reference compound]", "values": [{"measurement": "Relaxation (%)", "setting": "[1]", "result": 10, "unit": "%"}, {"measurement": "average of the highest internal pressure increase of the penile corpus cavernosum after electrostimulation", "setting": "[2]", "result": "4.3±1.0", "unit": "mmHg"}]}, {"compound": "CCCOc1ccccc1-c1nc2nn[nH]c2c(=O)[nH]1", "note": "[Zaprinast]", "values": [{"measurement": "Relaxation (%)", "setting": "[1]", "result": 36, "unit": "%"}]}, {"compound": "CC(=O)OCC[N+](C)(C)C", "note": "[Acetylcholine, acetylcholine]", "values": [{"measurement": "Relaxation (%)", "setting": "[1]", "result": 21, "unit": "%"}]}, {"compound": "CN(C)C(=N)N=C(N)N", "note": "[Metformin, metformin]", "values": [{"measurement": "Relaxation (%)", "setting": "[1]", "result": 0.1, "unit": "%"}]}, {"compound": "CC1(C)CCC2=C(O1)c1ccccc1C(=O)C2=O", "note": "[Compound 1, β-lapachone]", "values": [{"measurement": "Relaxation (%)", "setting": "[1]", "result": 92, "unit": "%"}, {"measurement": "relaxation effects of penile corpus cavernosum smooth muscles (FIG. 2)", "setting": "[1]; concentration range of 10^−9 to 10^−7 M", "result": "about double that of the SNP-administration group"}, {"measurement": "phosphorylation of eNOS (p-eNOS) at 2 hours", "setting": "[3]; 2 hours", "result": "not observed"}, {"measurement": "time at which phosphorylation of eNOS (p-eNOS) is maximized", "setting": "[3]", "result": 30, "unit": "min"}, {"measurement": "relaxation caused by the compound 1 after L-NAME and methylene blue", "setting": "[4]; 10^−3 M of L-NAME and 10^−3 M of methylene blue", "result": "partially inhibited"}, {"measurement": "inhibition of relaxation by methylene blue compared to the L-NAME-treatment group", "setting": "[4]; methylene blue 10^−4 M", "result": "more greatly inhibited"}, {"measurement": "relaxation of the CHAPS-administration group (no Znpp) relative to relaxation of the compound 1-administration group", "setting": "[5]; 10^−4 M CHAPS, endothelial cells removed", "result": "about 45%"}, {"measurement": "relaxation of the ZnPP-administration group", "setting": "[5]; CHAPS plus zinc-protoporphyrin-IX (ZnPP), FIGS. 5 and 6", "result": "almost completely inhibited"}, {"measurement": "average of the highest internal pressure increase of the penile corpus cavernosum after electrostimulation", "setting": "[2]", "result": "9.7±5.1", "unit": "mmHg"}]}, {"compound": "CCCc1nn(C)c2c(=O)[nH]c(-c3cc(S(=O)(=O)N4CCN(C)CC4)ccc3OCC)nc12", "note": "[Viagra]", "values": [{"measurement": "selectivity of PDE 5 inhibition", "setting": "[6]", "result": "≥ 4,000 folds"}]}]}
